Test results: EP0938474B1, “CYCLOPROPYLINDOLE COMPOUNDS AND THEIR USE AS PRODRUGS” (AUCKLAND UNISERVICES LIMITED, priority 1996, dated 1998)

Experiments:
WC14.10 = assay: Cytotoxicity in cells transfected with bacterial nitroreductase (NR+); format: cell-based; settings: Homo sapiens; WC14.10 (NR+ transfected counterpart of WIDR); IC50, unit inferred; read-out: Human colon lines NR+
Description: (§1) Compounds of the invention were further tested against human cell lines (NR+ in Table 3) transfected with a gene encoding a bacterial nitroreductase (NR) enzyme to test for activation of compounds of the invention with NR. Untransfected control cells (NR- in Table 3) were used as controls. The cells used were the human colon NR-(wild-type) line WIDR and its transfected NR+ counterpart WC14.10; and the human ovarian NR- (wild-type) line SKOV3 together with its NR+ (transfected) counterpart SC3.2. The results are shown in Table 3, which also indicates the ratios of IC50s. These are intra-experiment values, and may differ slightly from those calculated from the given NR- and NR+ values.

SC3.2 = assay: as above; format: cell-based; settings: Homo sapiens, SK-OV-3; SC3.2 (NR+ transfected counterpart of SKOV3); IC50, unit inferred; read-out: Human ovarian lines NR+
Description: as §1

[1] = system: human colon NR-(wild-type) line WIDR; assay: Cytotoxicity in untransfected control cells (NR-), nitroreductase activation test; format: cell-based; settings: IC50, unit inferred, read-out: Human colon lines NR-
Description: as §1

[2] = system: human ovarian NR- (wild-type) line SKOV3; assay: as above; format: cell-based; settings: SK-OV-3, IC50, unit inferred, read-out: Human ovarian lines NR-
Description: as §1

UV4 = assay: Cytotoxicity (growth inhibition), 4 h drug exposure, methylene blue staining; format: cell-based, rodent; settings: Cricetulus griseus; UV4 mutant AA8 line defective in excision repair; 4 hours exposure, then three days incubation
Experimental: (§2) Compounds of the invention were tested for cytotoxicity against four different cell lines, all of which are widely available in the art. AA8 is a wild type rodent cell line. UV4 is a mutant AA8 cell line defective in excision repair, and hypersensitive to many alkylating agents. EMT6 is a widely-used rodent line. SKOV is a human ovarian cell line.
(§3) Cell culture assays were performed in 96-well microtitre trays. Compounds of the invention were added in culture medium, using serial two-fold dilutions to provide duplicate cultures at five different concentrations for each of eight drugs (plus eight controls) per tray. Drugs were dissolved in water or DMSO immediately prior to addition to the cell culture. After 4 hours, drugs were removed by washing cultures three times with fresh medium, and the trays were incubated for a futher three days. Cell density was then determined by staining with methylene blue as described previously (Finlay, G. J., et al, Anal. Biochm. 1984, 139, 272-277) and the IC50 was calculated as the drug concentration providing 50% inhibition of growth relative to the controls.

AA8 = assay: as above; format: cell-based; settings: Cricetulus griseus, CHO-AA8; AA8 wild type rodent cell line; 4 hours exposure, then three days incubation
Experimental: as §2, §3

EMT6 = assay: as above; format: cell-based; settings: Mus musculus; EMT6 rodent line; 4 hours exposure, then three days incubation
Experimental: as §2, §3

SKOV3 = assay: as above; format: cell-based; settings: SK-OV-3; human ovarian cell line; 4 hours exposure, then three days incubation
Experimental: as §2, §3

| SMILES | IC50 (WC14.10) | IC50 (SC3.2) | IC50 [1] | IC50 [2] | IC50 (UV4) | IC50 (AA8) | IC50 (EMT6) | IC50 (SKOV3) |
| --- | --- | --- | --- | --- | --- | --- | --- | --- |
| COc1cc2cc(C(=O)N3C[C@H](CCl)c4c3cc([N+](=O)[O-])c3ccccc43)[nH]c2c(OC)c1OC [14aR] | > 20000 nM | 300 nM | > 20000 nM | > 20000 nM |  |  |  |  |
| COc1cc2cc(C(=O)N3C[C@@H](CCl)c4c3cc(N)c3ccccc43)[nH]c2c(OC)c1OC [15aS, (S)-5-amino-1-(chloromethyl)-3-[(5,6,7-trimethoxyindol-2-yl)carbonyl]-1,2-dihydro-3H-benz[e]indole] |  |  |  |  | 0.1 nM | 0.2 nM | 0.1 nM | 0.5 nM |
| COC(=O)c1cc2c3c(cc([N+](=O)[O-])c2[nH]1)N(C(=O)c1cc2cc(OC)c(OC)c(OC)c2[nH]1)CC3CCl (centres unmarked) [compound 31, methyl 1-(chloromethyl)-5-nitro-3-[(5,6,7-trimethoxyindol-2-yl)carbonyl]-1,2-dihydro-3H-pyrrolo[3,2-e]indole-7-carboxylate] | 10 nM | 5 nM | 400 nM | 60 nM |  |  |  |  |
| CC(=O)Nc1ccc2[nH]c(C(=O)N3CC(CCl)c4c3cc([N+](=O)[O-])c3ccccc43)cc2c1 (centres unmarked) [14c, 3-[[5-(acetylamino)indol-2-yl]carbonyl]-1-(chloromethyl)-5-nitro-1,2-dihydro-3H-benz[e]indole] | 360 nM | 250 nM | 1600 nM | 4300 nM |  |  |  |  |
| COc1cc2cc(C(=O)N3C[C@H](CCl)c4c3cc(N)c3ccccc43)[nH]c2c(OC)c1OC [15aR, (R)-5-amino-1-(chloromethyl)-3-[(5,6,7-trimethoxyindol-,2-yl)carbonyl]-1,2-dihydro-3H-benz[e]indole] |  |  |  |  | 2.6 nM | 13.6 nM | 7 nM | 7.8 nM |
| CN(C)CCOc1ccc2[nH]c(C(=O)N3CC(CCl)c4c3cc([N+](=O)[O-])c3ccccc43)cc2c1 (centres unmarked) [14e, 1-(chloromethyl)-3-[[5-[2-(dimethylamino)-ethoxy]indol-2-yl]carbonyl] -5-nitro-1,2-dihydro-3H-benz [e] indole] | 130 nM | 90 nM | 370 nM | 1000 nM |  |  |  |  |
| CCCC(=O)Nc1cc(/C=C/C(=O)N2CC(CCl)c3c2cc([N+](=O)[O-])c2ccccc32)n(C)c1 (centres unmarked) [14i, 3-[(E)-4-(butyrylamino)-1-methyl-2-pyrroleacryloyl]-1-(chloromethyl)-5-nitro-1,2-dihydro-3H-benz [e] indole] | 600 nM | 390 nM | 2200 nM | 4300 nM |  |  |  |  |
| COc1cc2cc(C(=O)N3C[C@@H](CCl)c4c3cc([N+](=O)[O-])c3ccccc43)[nH]c2c(OC)c1OC [14aS] | 90 nM | 40 nM | 350 nM | 400 nM |  |  |  |  |
| Nc1ccc2[nH]c(C(=O)N3CC(CCl)c4c3cc(N)c3ccccc43)cc2c1 (centres unmarked) [15b, 5-amino-3-[(5-aminoindol-2-yl)carbonyl]-1-(chloromethyl)-1,2-dihydro-3H-benz [e] indole] |  |  |  |  | 1 nM | 2.4 nM | 0.8 nM | 3 nM |
| COc1cc2cc(C(=O)N3CC(CCl)c4c3cc(N)c3ccccc43)[nH]c2c(OC)c1OC (centres unmarked) [15a, 5-amino-1-(chloromethyl)-3-[(5,6,7-trimethoxyindol-2-yl)carbonyl]-1,2-dihydro-3H-benz [e] indole] |  |  |  |  | 0.28 nM | 0.45 nM | 0.27 nM | 1 nM |
| CN(C)CCOc1ccc2[nH]c(C(=O)N3CC(CCl)c4c3cc(N)c3ccccc43)cc2c1 (centres unmarked) [15e, 5-amino-1-(chloromethyl)-3-[[5-[2-(dimethylamino)ethoxy]indol-2-yl]carbonyl]-1,2-dihydro-3H-benz [e] indole] |  |  |  |  | 1.4 nM | 3.5 nM | 0.9 nM | 6.4 nM |
| COc1cc2cc(C(=O)N3CC(COS(C)(=O)=O)c4c3cc(N)c3ccccc43)[nH]c2c(OC)c1OC (centres unmarked) [15o, 5-amino-1-[(methanesulfonyloxy)methyl]-3-[(5,6,7-trimethoxyindol-2-yl)carbonyl]-1,2-dihydro-3H-benz[e]indole] |  |  |  |  |  | 660 nM | 233 nM | 1330 nM |
| COc1cc2cc(C(=O)N3CC(CCl)c4c3cc(NC(=O)OCc3ccc([N+](=O)[O-])cc3)c3ccccc43)[nH]c2c(OC)c1OC (centres unmarked) [15r, 1-(chloromethyl)-5-[(4-nitrobenzyloxycarbonyl)amino]-3-[(5,6,7-trimethoxyindol-2-yl)carbonyl]-1,2 - dihydro-3H-benz[e] indole] | 12 nM | 5.4 nM | 390 nM | 62 nM |  |  |  |  |
| COC(=O)c1cc2c3c(cc(N(C)C)c2[nH]1)N(C(=O)c1cc2cc(OC)c(OC)c(OC)c2[nH]1)CC3CCl (centres unmarked) [32c, methyl 1-(chloromethyl)-5-dimethylamino-3-[(5,6,7-trimethoxyindol-2-yl)carbonyl]-1,2-dihydro-3H-pyrrolo[3,2-e]indole-7-carboxylate] |  |  |  |  | 3.3 nM | 12 nM | 5.2 nM | 12 nM |
| COc1ccc2[nH]c(C(=O)N3CC(CCl)c4c3cc([N+](=O)[O-])c3ccccc43)cc2c1 (centres unmarked) [14d, 1-(chloromethyl)-3-[(5-methoxyindol-2-yl)carbonyl]-5-nitro-1,2-dihydro-3H-benz[e]indole] | 290 nM | 150 nM | 740 nM | 580 nM |  |  |  |  |
| COc1cc2cc(C(=O)N3CC(CCl)c4c3cc(N(C)C)c3ccccc43)[nH]c2c(OC)c1OC (centres unmarked) [15q, 1-(chloromethyl)-5-dimethylamino-3-[(5,6,7-trimethoxy-indol-2-yl)carbonyl]-1,2-dihydro-3H-benz [e] indole] |  |  |  |  | 3.7 nM | 5.6 nM | 3.8 nM | 16 nM |
| COc1cc2cc(C(=O)N3CC(CCl)c4c3cc([N+](=O)[O-])c3ccccc43)[nH]c2c(OC)c1OC (racemic) [14a] | 380 nM | 140 nM | 1300 nM | 1600 nM |  |  |  |  |
| COc1ccc2[nH]c(C(=O)N3CC(CCl)c4c3cc(N)c3ccccc43)cc2c1 (centres unmarked) [15d, 5-amino-1-(chloromethyl)-3-[(5-methoxyindol-2-yl)carbonyl]-1,2-dihydro-3H-benz[e] indole] |  |  |  |  | 0.8 nM | 1.2 nM | 0.9 nM | 1.8 nM |
| CNc1cc2c(c3cc(C(=O)OC)[nH]c13)C(CCl)CN2C(=O)c1cc2cc(OC)c(OC)c(OC)c2[nH]1 (centres unmarked) [32b, methyl 1-(chloromethyl)-5-methylamino-3-[(5,6,7-trimethoxyindol-2-yl)carbanyl]-1,2-dihydro-3H-pyrrolo[3,2-e]indole-7-carboxylate] |  |  |  |  | 0.7 nM | 2.4 nM | 0.8 nM | 1.9 nM |
| CC(=O)Nc1ccc2[nH]c(C(=O)N3CC(CCl)c4c3cc(N)c3ccccc43)cc2c1 (centres unmarked) [15c, 3-[[5-(acetylamino)indol-2-yl]carbonyl]-5-amino-1-(chloromethyl)-1,2-dihydro-3H-benz[e]indole] |  |  |  |  | 7.6 nM | 12.5 nM | 5.2 nM | 18 nM |
| CCCC(=O)Nc1cc(/C=C/C(=O)N2CC(CCl)c3c2cc(N)c2ccccc32)n(C)c1 (centres unmarked) [15i] |  |  |  |  | 16 nM | 31 nM | 5.9 nM | 22 nM |
| CNc1cc2c(c3ccccc13)C(CCl)CN2C(=O)c1cc2cc(OC)c(OC)c(OC)c2[nH]1 (centres unmarked) [15p, 1-(chloromethyl)-5-methylamino-3-[(5,6,7-trimethoxyindol-2-yl)carbonyl]-1,2-dihydro-3H-benz[e]indole] |  |  |  |  | 0.1 nM | 0.1 nM | 0.1 nM | 0.3 nM |
| COc1cccc(/C=C/C(=O)N2CC(CCl)c3c2cc(N)c2ccccc32)c1 (centres unmarked) [15l, 5-amino-1-(chloromethyl)-3-[(E)-3-methoxycinnamoyl]-1,2-dihydro-3H-benz[e]indole] |  |  |  |  | 0.4 nM | 0.3 nM | 0.2 nM | 0.6 nM |
| COC(=O)c1cc2c3c(cc(N)c2[nH]1)N(C(=O)c1cc2cc(OC)c(OC)c(OC)c2[nH]1)CC3CCl (centres unmarked) [32a, methyl 5-amino-1-(chloromethyl)-3-[(5,6,7-trimethoxyindol-2-yl)carbonyl]-1,2-dihydro-3H-pyrrolo[3,2-e]indole-7-carboxylate] |  |  |  |  | 1.7 nM | 17 nM | 5.6 nM | 14 nM |
